Target: T1, FPR2 (Homo sapiens, UniProt P25090)
T1 construct: purchased Promega (in-house HiBiT-GPCR construct library, NanoBRET)
T1 sequence (P25090 1-351): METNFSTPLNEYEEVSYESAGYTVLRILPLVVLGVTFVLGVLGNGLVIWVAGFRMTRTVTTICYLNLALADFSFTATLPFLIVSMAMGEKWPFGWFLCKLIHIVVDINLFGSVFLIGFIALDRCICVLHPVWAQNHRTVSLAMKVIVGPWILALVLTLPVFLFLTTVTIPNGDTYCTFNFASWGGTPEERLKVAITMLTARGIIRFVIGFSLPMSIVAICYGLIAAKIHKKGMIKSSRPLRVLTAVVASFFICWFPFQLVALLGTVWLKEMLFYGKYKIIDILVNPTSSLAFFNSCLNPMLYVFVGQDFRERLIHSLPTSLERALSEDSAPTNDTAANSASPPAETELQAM
Experiment: NanoBRET screen HiBiT-FPR2 in HEK293
Format: binding
Description: Each tracer candidate was screened across the entire library of HiBiT-GPCR constructs using NanoBRET as the detection modality. As depicted in Figure 4A, the specificity of interactions was evaluated through decrease in BRET due to competitive displacement of a bound tracer by excess parental compound. Each tracer was analyzed for binding to each HiBiT-GPCR fusion in the absence and in the presence of competing parental compound. Briefly, HEK293 cells were transfected with HiBiT-GPCR constructs diluted into promoterless DNA to reduce expression and maximize translocation to the cell surface. Each tracer candidate was then screened at concentrations of 1 μM and 0.1 μM across cells expressing these fusions. Cells were treated for 1.5 h with tracer either alone or in the presence of 20 μM competing parental compound (i.e., control). BRET was measured upon addition of purified LgBiT and subsequent complementation with HiBiT genetically fused to a GPCR. The specificity of interactions was assessed through a decrease in BRET signal due to competitive displacement of the bound tracer. To further gauge the robustness of these interactions, the fold response over the control (i.e., BRETtracer/BRETcontrol) was calculated. We chose a 1.5-fold response, which translates to ≥7-fold signal over noise as the minimal threshold required to score an interaction as positive. […]. Below we highlight the screening results obtained for our exemplary fluorescent tracers based on Clozapine, Amitriptyline and AZD1283.
HiBiT-GPCR DNA constructs were diluted in 10 mM Tris pH 8 to a final concentration of 0.01 μg/μL, arrayed in 96-well plates and stored at −20 °C. For transfection, HEK293 cells were suspended in Opti-MEM (without phenol red) supplemented with 2% fetal bovine serum (Seradigm) and 100 units/mL penicillin–streptomycin (Gibco) at a final concentration of 220,000 cells/mL and dispensed into white 96-well plates at 90 μL/well. Subsequent transfections and screens were carried using an Agilent Bravo Automated Liquid Handling Platform. First, the 96-well HiBiT DNA arrays were diluted 25-fold in Opti-MEM (without serum or phenol red) to a final concentration of 0.0004 μg/μL and 20 μL of the diluted DNAs were transferred into new 96-well plates. Next, promoterless carrier DNA (1 μg/μL) was diluted 25-fold (0.04 μg/μL) and then dispensed into the diluted arrays at 20 μL/well. Following brief mixing, Viafect transfection reagent (Promega) diluted 16-fold into Opti-MEM was dispensed into the plates at 40 μL/well. After mixing by pipetting, plates were incubated for 10 min on the pipetting station deck. The DNA-transfection reagent complexes were then added to plates containing cells. To facilitate the screen, 10 μL of DNA-transfection reagent complexes were added in duplicates to the top 4 and bottom 4 rows, resulting in two identical 48-well arrays per plate. Plates with transfected cells were incubated for 18–20 h at 37 °C/5% CO2. A screen of each tracer across the entire library using two different concentrations requires duplicate plates of transfected cells. Depending on the number of tracers being screened, transfections can be scaled up using the same ratios. The next day, for each tracer, four 20× screening solutions in tracer dilution buffer (Promega) were prepared: two duplicates at final concentration of 20 μM and two duplicates at a final concentration of 2 μM. A competing unmodified compound was added to one of each duplicate at a final concentration of 400 μM. The four resulting solutions were diluted 4-fold in Opti-MEM without serum or phenol red to generate 5× solutions (5 µM and 0.5 µM tracer +/− 100 μM competing compound). To screen the library, a BioTek MultiFlo FX liquid dispenser was used to dispense 22.5 µL of tracer solution to the top 4 rows and 22.5 µL tracer + competing compound solution to the 4 bottom rows. Plates were briefly mixed on an orbital shaker and incubated for 1.5 h at room temperature. […]

Structure (SMILES) | NanoBRET Fold Response (FPR2, tracer 0.1μM) | NanoBRET Fold Response (FPR2, tracer 1μM) | also measured
CCOC(=O)c1cc(C#N)c(N2CCC(C(=O)NS(=O)(=O)Cc3ccccc3/C=C/C(=O)NCCNC(=O)CCc3ccc4n3[B-](F)(F)[N+]3=C(c5ccc[nH]5)C=CC3=C4)CC2)nc1C [AZD1283-1-NB590] | – | – | NanoBRET Fold Response (FPR2, 0.1μM): 0.99; NanoBRET Fold Response (FPR2, 1μM): 1.04
N#CN=C(NCCCOc1cccc(CN2CCCCC2)c1)NCCNC(=O)CCOCCOCCOCCOCCNC(=O)CCc1ccc2n1[B-](F)(F)[N+]1=C(c3ccc[nH]3)C=CC1=C2 [Aminopotentidine-2-NB590] | 0.95 | 1.10 | –
CN(C)CCC=C1c2ccccc2CCc2ccc(C(=O)NCCNC(=O)CCOCCOCCOCCOCCNC(=O)CCc3ccc4n3[B-](F)(F)[N+]3=C(c5ccc[nH]5)C=CC3=C4)cc21 [Amitriptyline-a-2-NB590] | – | – | NanoBRET Fold Response (tracer at 0.1μM): 0.96; NanoBRET Fold Response (tracer at 1μM): 1.05
CN(C)CCC=C1c2ccccc2CCc2ccc(C(=O)NCCNC(=O)CCOCCOCCOCCOCCNC(=O)CCc3ccc4n3[B-](F)(F)[N+]3=C(c5ccc[nH]5)C=CC3=C4)cc21 [Amitriptyline-b-2-NB590] | – | – | NanoBRET Fold Response (tracer at 0.1μM, listed as amitriptyline-b-2-NB590): 0.88; NanoBRET Fold Response (tracer at 1μM): 0.99
COc1ccc2c(n1)c(CCNC(C)=O)cn2CCNC(=O)CCc1ccc2n1[B-](F)(F)[N+]1=C(c3ccc[nH]3)C=CC1=C2 [Azamelatonin-1-NB590] | – | – | NanoBRET Fold Response (0.1μM tracer): 0.96; NanoBRET Fold Response (1μM tracer): 1.50
COc1ccc2[nH]c(-c3ccc(CNC(=O)CCOCCOCCOCCOCCNC(=O)CCc4ccc5n4[B-](F)(F)[N+]4=C(c6ccc[nH]6)C=CC4=C5)cc3)c(CCNC(C)=O)c2n1 [AzomelatoninICO9-2-NB590] | – | – | NanoBRET Fold Response (0.1μM tracer): 0.74; NanoBRET Fold Response (1μM tracer): 1.09
O=C(CCOCCOCCOCCOCCNC(=O)CCc1ccc2n1[B-](F)(F)[N+]1=C(c3ccc[nH]3)C=CC1=C2)NCCCN1CCN(C2=Nc3cc(Cl)ccc3Nc3ccccc32)CC1 [Clozapine-a-2-NB590] | – | – | NanoBRET Fold Response (FPR2, 0.1μM tracer): 0.91; NanoBRET Fold Response (FPR2, 1μM tracer): 1.34
CN1CCN(C2=Nc3cc(Cl)ccc3Nc3ccc(CNC(=O)CCOCCOCCOCCOCCNC(=O)CCc4ccc5n4[B-](F)(F)[N+]4=C(c6ccc[nH]6)C=CC4=C5)cc32)CC1 [Clozapine-b-2-NB590] | – | – | NanoBRET Fold Response (FPR2, 0.1μM tracer): 0.78
CN1CCN(C2=Nc3cc(Cl)ccc3N(CC(=O)NCCOCCOCCOCCOCCNC(=O)CCc3ccc4n3[B-](F)(F)[N+]3=C(c5ccc[nH]5)C=CC3=C4)c3ccccc32)CC1 [Clozapine-c-2-NB590] | – | – | NanoBRET Fold Response (FPR2, 0.1μM tracer): 1.00; NanoBRET Fold Response (FPR2, 1μM tracer): 0.89
O=C(CCOCCOCCOCCOCCNC(=O)CCc1ccc2n1[B-](F)(F)[N+]1=C(c3ccc[nH]3)C=CC1=C2)NCCCN1CCN(C2=Nc3ccccc3Oc3ccc(Cl)cc32)CC1 [Loxapine-a-2-NB590] | 0.81 | 0.85 | –
COc1ccccc1N1CCN(CCCCN2C(=O)c3ccc(CNC(=O)CCOCCOCCOCCOCCNC(=O)CCc4ccc5n4[B-](F)(F)[N+]4=C(c6ccc[nH]6)C=CC4=C5)cc3C2=O)CC1 [NAN-190-2-NB590] | 0.56 | 1.20 | –
COc1ccccc1N1CCN(CCCCN2C(=O)c3ccc(CNC(=O)CCOCCNC(=O)c4ccc(CNC(=O)CCc5ccc6n5[B-](F)(F)[N+]5=C(c7ccc[nH]7)C=CC5=C6)cc4)cc3C2=O)CC1 [NAN-190-3-NB590] | 1.35 | 0.77 | –
O=C(CCc1ccc2n1[B-](F)(F)[N+]1=C(c3ccc[nH]3)C=CC1=C2)NCc1ccc(C(=O)NCCOCCC(=O)N[C@@H]2CC[C@@]3(O)[C@H]4Cc5ccc(O)c6c5[C@@]3(CCN4CC3CC3)[C@H]2O6)cc1 [Naltrexone-3-NB590] | 0.87 | 0.66 | –
Cc1cc2c(s1)Nc1ccccc1N=C2N1CCN(CCCNC(=O)CCOCCOCCOCCOCCNC(=O)CCc2ccc3n2[B-](F)(F)[N+]2=C(c4ccc[nH]4)C=CC2=C3)CC1 [Olanzapine-a-2-NB590] | 0.70 | 0.80 | –
O=C(CCc1ccc2n1[B-](F)(F)[N+]1=C(c3ccc[nH]3)C=CC1=C2)NCc1ccc(C(=O)NCCOCCOCCNCC(O)COc2cccc3ccccc23)cc1 (stereo not drawn) [Propranolol-3-NB590] | – | – | NanoBRET Fold Response (FPR2, 0.1μM): 1.02; NanoBRET Fold Response (FPR2, 1μM): 1.12
O=C(CCc1ccc2n1[B-](F)(F)[N+]1=C(c3ccc[nH]3)C=CC1=C2)NCCOCCOCCNC(=O)OCCOCCN1CCN(C2=Nc3ccccc3Sc3ccccc32)CC1 [Quetiapine-a-2-NB590] | 1.06 | 0.82 | –
Cc1nc2n(c(=O)c1CCN1CCC(c3noc4cc(F)ccc34)CC1)CCCC2OC(=O)NCCOCCOCCOCCOCCNC(=O)CCc1ccc2n1[B-](F)(F)[N+]1=C(c3ccc[nH]3)C=CC1=C2 (stereo not drawn) [Risperidone-2-NB590] | 0.94 | 0.95 | –
CC(C)N(CC[C@H](c1ccccc1)c1cc(CCNC(=O)CCOCCOCCOCCOCCNC(=O)CCc2ccc3n2[B-](F)(F)[N+]2=C(c4ccc[nH]4)C=CC2=C3)ccc1O)C(C)C [Tolterodine-2-NB590] | 1.07 | 0.71 | –
CC(C)N(CC[C@H](c1ccccc1)c1cc(CCNC(=O)c2ccc(CNC(=O)CCc3ccc4n3[B-](F)(F)[N+]3=C(c5ccc[nH]5)C=CC3=C4)cc2)ccc1O)C(C)C [Tolterodine-BZ-NB590] | 0.95 | 0.95 | –
CCCn1c(=O)c2[nH]c(-c3ccc(OCC(=O)NCCNC(=O)CCOCCNC(=O)c4ccc(CNC(=O)CCc5ccc6n5[B-](F)(F)[N+]5=C(c7ccc[nH]7)C=CC5=C6)cc4)cc3)nc2n(CCC)c1=O [XAC-3-NB590] | 0.89 | 0.95 | –

Reference: article PMC8151276, “An Integrated Approach toward NanoBRET Tracers for Analysis of GPCR Ligand Engagement” (Molecules, 2021)
